Assays:
duck salad = assay: Test C flood test plant response rating 0 to 100; type: in vivo, Heteranthera limosa
Procedure, shortened: (§1)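 Compounds in non-phytotoxic solvent applied preemergence to sandy loam one day after planting, postemergence at the 1–4 leaf stage, or to ~2.5 cm floodwater over silt loam.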

sorghum [1] = assay: Test B preemergence/postemergence greenhouse plant response rating 0 to 10; type: in vivo, Sorghum bicolor; conditions: 0 to 10 scale
Procedure, shortened: (§2)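 Planted seeds are treated preemergence with compound dissolved in a non-phytotoxic solvent, while postemergence applications go onto plants of two to eighteen cm. Plants stay in the greenhouse twelve to sixteen days and are then rated visually relative to controls.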

cheatgrass = assay: as above; type: in vivo, Bromus secalinus; conditions: for Plant response rating, Cheatgrass: 0 to 10 scale
Procedure, shortened: as §2

barley [2] = assay: as above; type: in vivo, Hordeum vulgare; conditions: for Plant response rating, Barley: 0 to 10 scale
Procedure, shortened: as §2

wheat = assay: as above; type: in vivo, Triticum aestivum; conditions: 0 to 10 scale
Procedure, shortened: as §2

blackgrass [3] = assay: as above; type: in vivo, Alopecurus myosuroides; conditions: for Plant response rating, Blackgrass: 0 to 10 scale
Procedure, shortened: as §2

barley [4] = assay: Test C preemergence/postemergence greenhouse plant response rating 0 to 100; type: in vivo, Hordeum vulgare; conditions: POSTEMERGENCE
Procedure, shortened: as §1

bedstraw [5] = assay: Test B preemergence/postemergence greenhouse plant response rating 0 to 10; type: in vivo, Galium aparine; conditions: POSTEMERGENCE
Procedure, shortened: as §2

sugar beet = assay: Test C preemergence/postemergence greenhouse plant response rating 0 to 100; type: in vivo, Beta vulgaris; conditions: POSTEMERGENCE
Procedure, shortened: as §1

wild buckwheat = assay: as above; type: in vivo, Polygonum convolvulus; conditions: POSTEMERGENCE
Procedure, shortened: as §1

bedstraw [6] = assay: as above; type: in vivo, Galium aparine; conditions: POSTEMERGENCE
Procedure, shortened: as §1

pigweed = assay: as above; type: in vivo, Amaranthusretroflexus; conditions: POSTEMERGENCE
Procedure, shortened: as §1

cotton = assay: Test B preemergence/postemergence greenhouse plant response rating 0 to 10; type: in vivo, Gossypium hirsutum; conditions: for Plant response rating, Cotton: 0 to 10 scale
Procedure, shortened: as §2

rice = assay: as above; type: in vivo, Oryza sativa; conditions: 0 to 10 scale
Procedure, shortened: as §2

sorghum [7] = assay: Test C preemergence/postemergence greenhouse plant response rating 0 to 100; type: in vivo, Sorghum bicolor; conditions: POSTEMERGENCE
Procedure, shortened: as §1

blackgrass [8] = assay: as above; type: in vivo, Alopecurus myosuroides; conditions: POSTEMERGENCE
Procedure, shortened: as §1

rape = assay: Test B preemergence/postemergence greenhouse plant response rating 0 to 10; type: in vivo, Brassica napus; conditions: 0 to 10 scale
Procedure, shortened: as §2

ryegrass = assay: Test C preemergence/postemergence greenhouse plant response rating 0 to 100; type: in vivo, Lolium multiflorum; conditions: POSTEMERGENCE
Procedure, shortened: as §1

CCCN1C(=O)COc2cc(F)c(-c3nn4c(c3Cl)CCCC4)cc21 [Compound 32]
1: Plant response rating, Rice (rice; PREEMERGENCE, Rate 50 g/ha)
50: Plant response rating Barley Igri (barley [4]; 62 g/ha, 0 to 100 scale) | Plant response rating (0 to 100), Sorghum (sorghum [7]; Rate 16 g/ha) | Plant response rating, Blackgrass (blackgrass [8]; 62 g/ha, 0 to 100 scale)
6: Plant response rating, Sorghum (sorghum [1]; POSTEMERGENCE, Rate 10 g/ha) | Plant response rating, Sorghum (sorghum [1]; POSTEMERGENCE, Rate 50 g/ha) | Plant response rating, Rape (rape; POSTEMERGENCE, Rate 10 g/ha)
0: Plant response rating (0 to 100), Duck salad (duck salad; POSTEMERGENCE section, flood test, Rate 1 g/ha) | Plant response rating (0 to 100), Duck salad (duck salad; POSTEMERGENCE section, flood test, Rate 4 g/ha) | Plant response rating, Barley (barley [2]; PREEMERGENCE, Rate 10 g/ha) | Plant response rating, Barley (barley [2]; PREEMERGENCE, Rate 50 g/ha) | Plant response rating, Wheat (wheat; PREEMERGENCE, Rate 50 g/ha) | Plant response rating, Cotton (cotton; PREEMERGENCE, Rate 10 g/ha)
20: Plant response rating (0 to 100), Barley Igri (barley [4]; Rate 1 g/ha) | Plant response rating (0 to 100), Ryegrass (ryegrass; Rate 4 g/ha)
8: Plant response rating, Bedstraw (bedstraw [5]; Rate 10 g/ha, 0 to 10 scale) | Plant response rating, Cotton (cotton; PREEMERGENCE, Rate 50 g/ha)
40: Plant response rating (0 to 100), Sorghum (sorghum [7]; Rate 4 g/ha) | Plant response rating Ryegrass (ryegrass; 62 g/ha, 0 to 100 scale)
7: Plant response rating, Rice (rice; POSTEMERGENCE, Rate 50 g/ha)
100: Plant response rating, Sugar beet (sugar beet; 62 g/ha, 0 to 100 scale) | Plant response rating (0 to 100), Sugar beet (sugar beet; Rate 4 g/ha) | Plant response rating (0 to 100), Sugar beet (sugar beet; Rate 16 g/ha) | Plant response rating, Bedstraw (bedstraw [6]; 62 g/ha, 0 to 100 scale) | Plant response rating (0 to 100), Bedstraw (bedstraw [6]; Rate 16 g/ha) | Plant response rating Pigweed (pigweed; 62 g/ha, 0 to 100 scale) | Plant response rating (0 to 100), Pigweed (pigweed; Rate 4 g/ha) | Plant response rating (0 to 100), Pigweed (pigweed; Rate 16 g/ha)
85: Plant response rating (0 to 100), Bedstraw (bedstraw [6]; Rate 1 g/ha)
10: Plant response rating (0 to 10 scale), Bedstraw (bedstraw [5]; Rate 50 g/ha) | Plant response rating, Cotton (cotton; POSTEMERGENCE, Rate 10 g/ha) | Plant response rating (0 to 10 scale), Cotton (cotton; POSTEMERGENCE, Rate 50 g/ha) | Plant response rating (0 to 100), Blackgrass (blackgrass [8]; Rate 1 g/ha) | Plant response rating, Rape (rape; POSTEMERGENCE, Rate 50 g/ha) | Plant response rating (0 to 100), Ryegrass (ryegrass; Rate 1 g/ha)
30: Plant response rating (0 to 100), Duck salad (duck salad; Rate 16 g/ha, under POSTEMERGENCE head (flood test species)) | Plant response rating (0 to 100), Barley Igri (barley [4]; Rate 4 g/ha) | Plant response rating (0 to 100), Barley Igri (barley [4]; Rate 16 g/ha) | Plant response rating (0 to 100), Wild buckwheat (wild buckwheat; Rate 1 g/ha) | Plant response rating (0 to 100), Sorghum (sorghum [7]; Rate 1 g/ha) | Plant response rating (0 to 100), Blackgrass (blackgrass [8]; Rate 4 g/ha) | Plant response rating (0 to 100), Blackgrass (blackgrass [8]; Rate 16 g/ha) | Plant response rating (0 to 100), Ryegrass (ryegrass; Rate 16 g/ha)
95: Plant response rating, Wild buckwheat (wild buckwheat; 62 g/ha, 0 to 100 scale) | Plant response rating (0 to 100), Pigweed (pigweed; Rate 1 g/ha)
4: Plant response rating, Cheatgrass (cheatgrass; POSTEMERGENCE, Rate 10 g/ha) | Plant response rating, Blackgrass (blackgrass [3]; POSTEMERGENCE, Rate 10 g/ha) | Plant response rating, Rice (rice; POSTEMERGENCE, Rate 10 g/ha)
90: Plant response rating (0 to 100), Wild buckwheat (wild buckwheat; Rate 16 g/ha) | Plant response rating (0 to 100), Bedstraw (bedstraw [6]; Rate 4 g/ha)
2: Plant response rating, Sorghum (sorghum [1]; PREEMERGENCE, Rate 50 g/ha) | Plant response rating, Cheatgrass (cheatgrass; PREEMERGENCE, Rate 10 g/ha) | Plant response rating, Rape (rape; PREEMERGENCE, Rate 50 g/ha)
80: Plant response rating (0 to 100), Sugar beet (sugar beet; Rate 1 g/ha)
60: Plant response rating Duck salad (duck salad; flood test species listed under POSTEMERGENCE, 62 g/ha, 0 to 100 scale) | Plant response rating (0 to 100), Wild buckwheat (wild buckwheat; Rate 4 g/ha) | Plant response rating, Sorghum (sorghum [7]; 62 g/ha, 0 to 100 scale)
5: Plant response rating (0 to 10 scale), Cheatgrass (cheatgrass; POSTEMERGENCE, Rate 50 g/ha) | Plant response rating, Cheatgrass (cheatgrass; PREEMERGENCE, Rate 50 g/ha) | Plant response rating, Barley (barley [2]; POSTEMERGENCE, Rate 10 g/ha) | Plant response rating (0 to 10 scale), Barley (barley [2]; POSTEMERGENCE, Rate 50 g/ha) | Plant response rating, Wheat (wheat; POSTEMERGENCE, Rate 10 g/ha) | Plant response rating, Wheat (wheat; POSTEMERGENCE, Rate 50 g/ha) | Plant response rating (0 to 10 scale), Blackgrass (blackgrass [3]; POSTEMERGENCE, Rate 50 g/ha) | Plant response rating, Blackgrass (blackgrass [3]; PREEMERGENCE, Rate 10 g/ha) | Plant response rating, Blackgrass (blackgrass [3]; PREEMERGENCE, Rate 50 g/ha)

Source: patent US6358885B1, “Substituted phenylheterocyclic herbicides” (Mississippi State University, priority 1992, dated 2002)
